The values below come from patent US12396961B2, “Compounds and compositions for intracellular delivery of agents” (ModernaTX, Inc., priority 2015, dated 2025).

Entries after “also recorded” stand apart in the source; their conditions may differ. Read-outs that look alike come from different tables or passages of the source.

Data set [1] is described as follows: Particle size and polydispersity index (Zetasizer Nano ZS). Conditions: for PDI: Table 1, DOPE 40:20:38.5:1.5, Luc mRNA. In kind it is physicochemical. The gist of the method:
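Particle size and polydispersity index were measured by dynamic light scattering on a Zetasizer Nano ZS in 1×PBS. Zeta potential was measured in 15 mM PBS.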

In data set [2] the test system is luciferase (Luc) mRNA expression. In words: Luc expression (AUC) in CD-1 mice relative to MC3. In kind it is in vivo. To be noted: for Lipid/MC3 Luc CD-1 (mice): Luc expression relative to MC3, CD-1 mice. The essentials: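 CD-1 mice dosed at 0.5 mpk with nanoparticle compositions carrying luciferase mRNA; total light flux acquired by whole-body luminescent imaging 6 h after administration. Expression referenced to MC3-containing composition.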

Data set [3] is described as follows: Lipid levels (clearance) in liver and spleen 48 hours after administration. In kind it is in vivo, rats. Conditions: for concentration at 48 h: Sprague-Dawley, rat, intravenous. Here is the method:
Formulations were administered intravenously to rats (n=3 or 6) at a dosage of 0.2 mg/kg or 0.5 mg/kg (mpk) and hEPO levels measured at 3, 6, and 24 hour time points. After the 48 hour time point, livers and spleens were harvested and frozen.
The amount of lipid in the liver and spleen 48 hours after administration of a nanoparticle composition was also measured. […] In contrast, approximately 60% of doses including MC3 or Compound 22 remained in the liver after 48 hours. Less than 3% of the dose remained in the spleen for each composition tested.

Data set [4] relates to luciferase (Luc) mRNA expression. In words: Expression of Luc in different organs (liver, lung, spleen, femur) 6 hours after intravenous administration. Type of data set: in vivo. Conditions: mice i.v. 0.5 mpk. Here is the method: The efficacy of the nanoparticle compositions presented in Tables 1, la, 17-1, 19-1, 20-1 and 21-1 was further evaluated by measuring the expression of modified luciferase in the liver, lung, spleen, and femur upon administration of a given composition. Formulations were administered intravenously to mice (n=3) at a dosage of 0.5 mpk and bioluminescence measured after 6 hours. The standard MC3 formulation and a PBS control were also tested.

Data set [5] has as its system LDLr mRNA / Luc expression. In words: Expression (AUC) in LDLr−/− mice relative to KL22. Type of data set: in vivo. Conditions: Table 7b.
The subject of data set [6] is hEPO mRNA expression. In words: Expression of hEPO after intravenous administration to rats. In kind it is in vivo. To be noted: for hEPO (pg/mL) 3 hours / hEPO (pg/mL) 6 hours / hEPO (pg/mL) 24 hours: Table 6, rats i.v. 0.2 or 0.5 mg/kg. As for the experimental part:
PBS (phosphate buffered saline) is used as control.
Formulations were prepared according to Table 5 and included mRNA encoding hEPO.
[…] After the 48 hour time point, livers and spleens were harvested and frozen.

The next data set has as its system rats. The data set can be described thus: Tolerability / toxicity in rats dosed i.v. with hEPO mRNA LNP. Conditions: 2 mg/kg dose. In kind it is in vivo.
Data set [7] concerns hEPO mRNA expression. In words: Expression of hEPO in mice (CD-1). In kind it is in vivo, CD-1 mice. To be noted: hEPO expression relative to MC3, CD-1 mice. From the text: FIG. 12 is a set of graphs illustrating hEPO expression levels in CD-1 mice dosed with compounds of the disclosure, compared to MC3. PBS is used as control. […] In graphs A-C numbers 1-14 refer to compositions containing the following: 1: Compound 73, 2: Compound 80, 3: Compound 70; 4: Compound 81; 5: Compound 69; 6: Compound 82; 7: Compound 83; 8: Compound 62; 9: Compound 84; 10: Compound 85; 11: Compound 86; 12: Compound 87; 13: MC3; 14: PBS.
FIG. 13 is a graph showing hEPO levels (pg/mL) in CD-1 mice up to −25 h after administration of a nanoparticle composition containing compounds of the disclosure, compared to a composition containing MC3. Numbers 1-13 refer to compositions containing the following: 1: Compound 73, 2: Compound 80, 3: Compound 70; 4: Compound 81; 5: Compound 69; 6: Compound 82; 7: Compound 83; 8: Compound 62; 9: Compound 84; 10: Compound 85; 11: Compound 86; 12: Compound 87; 13: MC3. […]

Data set [8] relates to GFP mRNA expression in liver cells. In words: Mouse liver immunohistochemistry (IHC) of GFP after GFP mRNA LNP. In kind it is in vivo, CD-1 mouse; LDLR knockout mouse. To be noted: i.v. 0.5 mpk; MC3: CD-1 mouse, 6h; Compound 4: LDLR knockout mouse, 8h. As for the experimental part: FIG. 11 is a pair of images comparing the results of a mouse liver immunohistochemistry (IHC) using mRNA expressing green fluorescent protein (GFP) after administration of nanoparticle compositions containing Compound 4 and MC3.
FIG. 16 is a graph showing GFP levels in the livers of LDLR knockout mice at 30 min to 24 h after intravenous administration of an eGFP RNA in a lipid composition containing Compound 4. The liver GFP levels were determined via IHC. The square markers represent the number of GFP positive cells following administration of a dose of 0.1 mpk of the composition. The circular markers represent the number of GFP positive cells following administration of a dose of 0.5 mpk of the composition.

For data set [9], the system named is luciferase (Luc) mRNA expression. In words: Expression of Luc, bioluminescence (total flux) after intravenous administration to mice. Type of data set: in vivo. Here is the method:
In order to monitor how effectively various nanoparticle compositions deliver therapeutic and/or prophylactic agents to targeted cells, different nanoparticle compositions including a particular therapeutic and/or prophylactic agent (for example, a modified or naturally occurring RNA such as an mRNA) are prepared and administered to rodent populations. Mice are intravenously, intramuscularly, intraarterially, or intratumorally administered a single dose including a nanoparticle composition with a formulation such as those provided in Table 1. In some instances, mice may be made to inhale doses. Dose sizes may range from 0.001 mg/kg to 10 mg/kg, where 10 mg/kg describes a dose including 10 mg of a therapeutic and/or prophylactic agent in a nanoparticle composition for each 1 kg of body mass of the mouse. A control composition including PBS may also be employed.
Upon administration of nanoparticle compositions to mice, dose delivery profiles, dose responses, and toxicity of particular formulations and doses thereof can be measured by enzyme-linked immunosorbent assays (ELISA), bioluminescent imaging, or other methods. For nanoparticle compositions including mRNA, time courses of protein expression can also be evaluated. Samples collected from the rodents for evaluation may include blood, sera, and tissue (for example, muscle tissue from the site of an intramuscular injection and internal tissue); sample collection may involve sacrifice of the animals.
The efficacy of the nanoparticle compositions presented in Tables 1, la, 17-1, 19-1, 20-1 and 21-1 was evaluated with a bioluminescence study. Formulations were administered intravenously to mice (n=6) at a dosage of 0.5 mg/kg (mpk) and bioluminescence measured at 3, 6, and 24 hour time points. The standard MC3 formulation and a PBS control were evaluated for comparison.

As to `CCCCCCCCCN(CCCCCCCCC)CCN(CCCCCCCCC)CC(=O)N1CCN(C(=O)CN(CCCCCCCCC)CCCC(=O)OCCCCC)CC1` [Compound 45, Pentyl 4-((2-(4-(N-(2-(dinonylamino)ethyl)-N-nonylglycyl)piperazin-1-yl)-2-oxoethyl)(nonyl)amino)butanoate], the PDI in data set [1] came to 0.200. Further, the “Lipid/MC3 Luc CD-1 (mice)” value in data set [2] was 6.50. For the same compound, in data set [3], the “% dose remaining Rat liver (48 h)” value is on record as 8.57%.
For the compound `CCCCC/C=C\C/C=C\CCCCCCCCC1(CCCCCCCC/C=C\C/C=C\CCCCC)CC(OC(=O)CCCN(C)C)C1` [Compound 21-2, 3,3-Di((9Z,12Z)-octadeca-9,12-dien-1-yl)cyclobutyl 4-(dimethylamino)butanoate], the “Total flux in organs, comparison in words over the organs of the table named” value (shortened to “Total flux … over the organs of the table named”) in data set [4] is “lowest expression in each organ”.
In data set [1], `CCCCCCCCCN(CCCCCCCCC)CCC1CCN(C(=O)CN(CCCCCCCCC)CCN(CCCCCCCCC)CCCCCCCCC)CC1` [Compound 49, 2-((2-(Dinonylamino)ethyl)(nonyl)amino)-1-(4-(2-(dinonylamino)ethyl)piperidin-1-yl)ethan-1-one] showed a PDI of 0.200. For the same compound, the “Lipid/MC3 Luc CD-1 (mice)” value in data set [2] came to 5.23. For the same compound, in [3], the “% dose remaining Rat liver (48 h)” value worked out at 38.45%.
`CCCCCCCCCCCCN(CCCCCCCCCCCC)CCN(CCCCCCCCCCCC)CCN1CCN(CCN(CCCCCCCCCCCC)CCCCCCCCCCCC)CC1` [KL22, N1-[2-(didodecylamino)ethyl]-N1,N4,N4-tridodecyl-1,4-piperazinediethanamine, reference compound]: the “Lipid/KL22 AUC LDLr−/− mice 0.5 mpk, LDLr” value in data set [5] came to 1. In the data set with hEPO mRNA expression [6] (rats, 2 mpk, i.v. (Graph A), in words), the “hEPO expression in rats (FIG. 8)” value is “do not express hEPO in rats”. Further, in the data set on rats, the “Tolerability / toxicity in rats (FIG. 8)” value is “toxic”.
Turning to `CCCCCCCCCCCCN(CCCCCCCCCCCC)CCN(CCCCCCCCCCCC)CCN1CCN(CCN(CCCCCCCCC)CCCCCCCCC)CC1` [23 (DOPE)], the “Lipid/MC3 hEPO S.D. (rats)” value in the data set with hEPO mRNA expression [6] (hEPO expression relative to MC3, S.D. rats, intravenous) is 0.21. The concentration at 48 h in [3] (liver, 48 hours after administration, read-out: Lipid in liver) turned out to be 32900 ng/g; in data set [3] (spleen, 48 hours after administration, read-out: Lipid in spleen) it was 26100 ng/g. Also, the “% remaining dose in liver” value in [3] (liver, 48 hours after administration) was determined as 51.4%. In addition, the “% remaining dose in spleen” value in [3] (spleen, 48 hours after administration) was found to be 2.72%. In addition, the “Lipid/MC3 hEPO CD-1 (mice)” value with hEPO mRNA expression [7] is 2.4.
For the compound `CCCCCC=CCC=CCCCCCCCCC(CCCCCCCCC=CCC=CCCCCC)OC(=O)CCCN(C)C` (centres unmarked) [MC3, heptatriaconta-6,9,28,31-tetraen-19-yl 4-(dimethylamino)butanoate, reference compound], in data set [1] (Table 20-1), the “Size (nm)” value was determined as 84.0 nm. For the same compound, the “Total flux … over the organs of the table named” value in [4] (0.5 mg/kg) is “highest total flux; also recorded: highest expression in each organ”. In data set [5], the “Lipid/KL22 AUC LDLr−/− mice 0.5 mpk, LDLr” value came out at 0.15. Besides, the “hEPO expression at each time point, comparison in words (Table 6)” value in the data set on hEPO mRNA expression [6] (rats i.v., 3, 6, 24 hours) is listed as “highest hEPO expression”. In data set [2], the “Lipid/MC3 Luc CD-1 (mice)” value amounted to 1. Besides, in [2] (Table 7b, Luc expression, CD-1 mice, 0.5 mpk), the “Lipid/MC3 AUC CD-1 mice 0.5 mpk” value is 1. In addition, the “GFP protein expression in liver cell types (IHC, FIG. 11)” value in data set [8] is “observed in both hepatocytes and Kupffer cells”. The “% dose remaining Rat liver (48 h)” value in [3] came to 43.11%. In addition, in [9] (mice i.v. 0.5 mg/kg, 3, 6, 24 hours, 0.5 mg/kg), the “Total flux (Luc expression), comparison in words over the time points of the table named” value is on record as “highest total flux; also recorded: highest luciferase expression”.
As to `CCCCCCCCCCCCN(CCCCCCCCCCCC)CCN(CCCCCCCCCCCC)CCN1CCN(CCN(CCCCCCCCC)CCCCCCCCC)CC1` [Compound 23, N^1-(2-(4-(2-(Dinonylamino)ethyl)piperazin-1-yl)ethyl)-N^1,N^2,N^2 tridodecylethane-1,2-diamine], the PDI in [1] was determined as 0.058. For the same compound, in the data set on hEPO mRNA expression [6] (DOPE formulation of Table 5), the “hEPO (pg/mL) 3 hours” value was found to be 249213 pg/mL, the “hEPO (pg/mL) 6 hours” value is listed as 275440 pg/mL and the “hEPO (pg/mL) 24 hours” value came out at 120104 pg/mL. In the data set with hEPO mRNA expression [6] (DSPC formulation of Table 5), the “hEPO (pg/mL) 3 hours” value is 86627 pg/mL, the “hEPO (pg/mL) 6 hours” value was 71360 pg/mL and the “hEPO (pg/mL) 24 hours” value was 29008 pg/mL. In addition, the “Tolerability / toxicity in rats (FIG. 8)” value with rats is given as “toxic”. The “Luc expression in mice compared with MC3 (Table 7a)” value in [9] (mice, in words) is given as “several fold higher”.
`CCCCC/C=C\C/C=C\CCCCCCCCC1(CCCCCCCC/C=C\C/C=C\CCCCC)CCC(OC(=O)CCCN(C)C)C1` (centres unmarked) [Compound 21-4, 3,3-Di((9Z,12Z)-octadeca-9,12-dien-1-yl)cyclopentyl 4-(dimethylamino)butanoate]: the “Total flux … over the organs of the table named” value in [4] is given as “lowest expression in each organ”.
Turning to `CCCCCCCCCCCCCCN(CCCCCCCCCCCCCC)CCN1CCN(CCN(CCCCCCCCC)CCN(CCCCCCCCC)CCCCCCCCC)CC1` [Compound 20, N^1-(2-(4-(2-(Ditetradecylamino)ethyl)piperazin-1-yl)ethyl)-N^1,N^2,N^2-trinonylethane-1,2-diamine], the PDI in [1] is reported as 0.150. Besides, the “Total flux … over the organs of the table named” value in data set [4] was “highest total flux”. Besides, in data set [2], the “Lipid/MC3 Luc CD-1 (mice)” value came to 5.0.
